Assay [1] deals with T1, Enoyl-[acyl-carrier-protein] reductase [NADPH] FabI (Staphylococcus aureus) (UniProt Q6GI75).
T1 sequence (whole entry): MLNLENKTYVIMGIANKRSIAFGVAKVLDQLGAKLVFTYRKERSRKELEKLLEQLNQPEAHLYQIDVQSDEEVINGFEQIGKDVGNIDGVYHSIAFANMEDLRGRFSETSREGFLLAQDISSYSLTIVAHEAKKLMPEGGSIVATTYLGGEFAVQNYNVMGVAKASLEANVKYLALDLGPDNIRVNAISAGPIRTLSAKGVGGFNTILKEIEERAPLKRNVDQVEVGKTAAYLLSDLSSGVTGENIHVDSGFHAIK
Description: Inhibition of N-terminal his 6 tagged Staphylococcus aureus Fabi (1 to […] residues) expressed in Escherichia coli BL21 at 1 uM incubated for 30 mins in presence of NADPH by fluorescence based microplate reader analysis relative to control.

The next assay deals with Enterococcus faecium. The assay is described as follows: Antimicrobial activity against Enterococcus faecium ATCC19434 measured after 24 hrs by CLSI protocol based microdilution method. In kind it is functional. (Dilution methods test growth across graded concentrations, often in twofold steps.)
The test system of assay [2] is Staphylococcus aureus. The assay is described as follows: Antimicrobial activity against […] Staphylococcus aureus ATCC33591 measured after 24 hrs by CLSI protocol based microdilution method. The assay is classed as functional.
Assay [3] has as its system Staphylococcus aureus. The assay is described as follows: Antimicrobial activity against methicillin-susceptible Staphylococcus aureus ATCC25923 measured after 24 hrs by CLSI protocol based microdilution method. The assay is classed as functional.
A further assay concerns Acinetobacter baumannii. Description: Antimicrobial activity against Acinetobacter baumannii ATCC19606 measured after 24 hrs by CLSI protocol based microdilution method. The assay is classed as functional.
Assay [4] concerns Staphylococcus aureus. Description: Antimicrobial activity against […] Staphylococcus aureus USA300 measured after 24 hrs by CLSI protocol based microdilution method. In kind it is functional.
For another assay, the system named is Escherichia coli. Description: Antimicrobial activity against Escherichia coli ATCC25922 measured after 24 hrs by CLSI protocol based microdilution method. The assay is classed as functional.
In another assay the test system is Candida albicans. Description: Antimicrobial activity against Candida albicans SC5314 measured after 48 hrs by CLSI protocol based microdilution method. In kind it is functional.
In assay [5] the target is T1, Enoyl-[acyl-carrier-protein] reductase [NADPH] FabI (Staphylococcus aureus). The assay is described as follows: Inhibition of N-terminal his 6 tagged Staphylococcus aureus Fabi (1 to […] residues) expressed in Escherichia coli BL21 at 10 uM incubated for 30 mins in presence of NADPH by fluorescence based microplate reader analysis relative to control.
A further assay relates to Enterococcus faecalis. Description: Antimicrobial activity against Enterococcus faecalis ATCC29212 measured after 24 hrs by CLSI protocol based microdilution method. The assay is classed as functional.
In assay [6] the test system is Staphylococcus aureus. Description: Antimicrobial activity against methicillin-susceptible Staphylococcus aureus ATCC29213 measured after 24 hrs by CLSI protocol based microdilution method. In kind it is functional.
The test system of assay [7] is Staphylococcus aureus. Description: Antimicrobial activity against […] Staphylococcus aureus ATCC43300 measured after 24 hrs by CLSI protocol based microdilution method. In kind it is functional.
Another assay deals with Pseudomonas aeruginosa. The assay is described as follows: Antimicrobial activity against Pseudomonas aeruginosa PAO1 measured after 24 hrs by CLSI protocol based microdilution method. The assay is classed as functional.
Assay [8] relates to Staphylococcus aureus. The assay is described as follows: Antimicrobial activity against […] Staphylococcus aureus NRS271 measured after 24 hrs by CLSI protocol based microdilution method. The assay is classed as functional.

This passage reports inhibition and MIC results from ChEMBL document CHEMBL5500393, “Discovery and Optimization of Novel SaFabI Inhibitors as Specific Therapeutic Agents for MRSA Infection” (J Med Chem, 2024).

Converted amounts (≈) assume the structure as drawn. Bounds are passed on as bounds.

One may read the inhibition as the percentage by which the read-out fell short of the control. By MIC is commonly meant the lowest concentration that inhibits growth of the organism. Low readings indicate inhibition by little substance, high ones a need for much substance. For `Cc1c(Br)cccc1N1CC(c2nc3ccccc3[nH]2)CC1=O` (centres undefined), the inhibition in assay [1] was 11.6%; in assay [5], 36.6%. The minimal inhibitory concentration (MIC) against Enterococcus faecium, in the assay on Staphylococcus aureus [2], against Staphylococcus aureus [3], in the assay on Acinetobacter baumannii, against Staphylococcus aureus [4] and in the assay with Escherichia coli was greater than 32 µg/mL in each case. Besides, the minimal inhibitory concentration (MIC) with Candida albicans, against Enterococcus faecalis, with Staphylococcus aureus [6], in the assay with Staphylococcus aureus [7], against Pseudomonas aeruginosa and in the assay on Staphylococcus aureus [8] was greater than 32 µg/mL throughout.
On to `Cn1c(C2CC(=O)N(c3ccccc3)C2)nc2ccccc21` (centres undefined), for which the inhibition in [1] is 8.9%; in assay [5], 56.2%. For the same compound, the MIC with Enterococcus faecium, in the assay on Staphylococcus aureus [2], in the assay on Staphylococcus aureus [3], in the assay on Acinetobacter baumannii, in the assay with Staphylococcus aureus [4] and against Escherichia coli was greater than 32 µg/mL throughout. Also, the minimum inhibitory concentration (MIC) against Candida albicans, in the assay on Enterococcus faecalis, in the assay on Staphylococcus aureus [6], in the assay on Staphylococcus aureus [7], in the assay with Pseudomonas aeruginosa and in the assay with Staphylococcus aureus [8] was greater than 32 µg/mL throughout.
For `Cc1c(Br)cccc1N1C[C@H](c2nc3ccccc3n2C)CC1=O`, the minimal inhibitory concentration (MIC) with Staphylococcus aureus [2], in the assay with Staphylococcus aureus [3], against Staphylococcus aureus [4], against Staphylococcus aureus [6], against Staphylococcus aureus [7] and in the assay with Staphylococcus aureus [8] was greater than 32 µg/mL throughout.
For the compound `CC(=O)c1ccc(N2CC(c3nc4ccccc4n3C)CC2=O)cc1` (centres undefined), the inhibition in [1] is 2.8%; in [5], 10.1%. Moreover, the MIC in the assay on Enterococcus faecium, against Staphylococcus aureus [2], in the assay with Staphylococcus aureus [3], against Acinetobacter baumannii, in the assay with Staphylococcus aureus [4] and against Escherichia coli was greater than 32 µg/mL throughout. In addition, the minimal inhibitory concentration (MIC) in the assay on Candida albicans, with Enterococcus faecalis, in the assay on Staphylococcus aureus [6], against Staphylococcus aureus [7], against Pseudomonas aeruginosa and in the assay on Staphylococcus aureus [8] was greater than 32 µg/mL throughout.
With `O=C1CC(c2nc3ccccc3[nH]2)CN1c1cccc(Cl)c1F` (centres undefined), the figures for the inhibition in [1] and in [5] were 1.7% and 16.9%, respectively. Further, the minimal inhibitory concentration (MIC) against Enterococcus faecium, against Staphylococcus aureus [2], in the assay on Acinetobacter baumannii, in the assay on Staphylococcus aureus [4], against Escherichia coli and against Candida albicans was greater than 32 µg/mL in each case. Besides, the MIC in the assay with Enterococcus faecalis, in the assay on Staphylococcus aureus [6], in the assay with Staphylococcus aureus [7], against Pseudomonas aeruginosa and in the assay on Staphylococcus aureus [8] was greater than 32 µg/mL in each case.
Consider `COc1cccc(OC)c1C(=O)N[C@@H]1C(=O)N2[C@@H]1SC(C)(C)[C@@H]2C(=O)O` [METHICILLIN], for which the minimal inhibitory concentration (MIC) with Staphylococcus aureus [2] was greater than 32 µg/mL; against Staphylococcus aureus [3], 2 µg/mL (≈ 5.26 µM); with Staphylococcus aureus [4], greater than 32 µg/mL; with Staphylococcus aureus [6], 2 µg/mL (≈ 5.26 µM); against Staphylococcus aureus [7], greater than 32 µg/mL; against Staphylococcus aureus [8], greater than 32 µg/mL.
As to `CN(C)c1ccc2nc3c(C(=O)O)cc(O)c(O)c3[o+]c2c1`, the inhibition in [5] is greater than 70%.
Consider `O=C1C=CC(=O)c2ccccc21`, for which the inhibition in assay [5] was greater than 70%.
Consider `CCCCCC/C=C/CCCCCCCc1cccc(O)c1C(=O)O`, for which the inhibition in assay [5] is greater than 70%.
The same measure, in the same setting: then `O=C(N/N=C/c1cc(O)c(O)cc1O)c1cc2ccccc2cc1O`, with greater than 70%; and `COCCCOc1ccc(C)c(C[S+]([O-])c2nc3ccccc3[nH]2)n1` (centres undefined), with greater than 70%; and `O=c1sn(-c2cccc3ccccc23)c(=O)n1Cc1ccccc1`, with greater than 70%.
Take `Oc1ccc2ccccc2c1SSc1c(O)ccc2ccccc12`: in assay [5], the inhibition is greater than 70%.
